Assay results reported in ChEMBL document CHEMBL1201861, “Genomics of Drug Sensitity in Cancer screening data, Wellcome Trust Sanger Institute”.

Experiments:
Assay in all cases: cells
U-87 MG = format: functional, cell-based, Homo sapiens, U-87MG ATCC; conditions: Homo sapiens, U-87 MG;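 also: growth inhibition of the cells measured with a viability assay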
Description: SANGER: Inhibition of human U-87-MG cell growth in a cell viability assay.

HAL-01 = format: functional, cell-based, Homo sapiens; conditions: Homo sapiens, HAL-01;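 also: growth inhibition of human HAL-01 cells, read out with a cell viability assay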
Description: SANGER: Inhibition of human HAL-01 cell growth in a cell viability assay.

KP-N-YS = format: functional, cell-based, Homo sapiens; conditions: Homo sapiens, KP-N-YS;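 also: cell viability assay measuring inhibition of cell line growth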
Description: SANGER: Inhibition of human KP-N-YS cell growth in a cell viability assay.

GAK = format: functional, cell-based, Homo sapiens; conditions: Homo sapiens, GAK;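 also: cell growth inhibition read out by a cell viability assay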
Description: SANGER: Inhibition of human GAK cell growth in a cell viability assay.

SNB-75 = format: functional, cell-based, Homo sapiens; conditions: Homo sapiens, SNB-75;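 also: cell viability assay measuring growth inhibition of human SNB-75 cells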
Description: SANGER: Inhibition of human SNB75 cell growth in a cell viability assay.

OVCAR-4 = format: functional, cell-based, Homo sapiens; conditions: Homo sapiens, OVCAR-4;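 also: growth inhibition of human OVCAR-4 cells, measured with a cell viability assay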
Description: SANGER: Inhibition of human OVCAR-4 cell growth in a cell viability assay.

HCC1187 = format: functional, cell-based, Homo sapiens; conditions: Homo sapiens, HCC1187;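 also: growth inhibition of HCC1187 cells, read out with a cell viability assay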
Description: SANGER: Inhibition of human HCC1187 cell growth in a cell viability assay.

NCI-N87 = format: functional, cell-based; conditions: Homo sapiens;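 also: growth inhibition of human NCI-N87 cells, read out with a cell viability assay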
Description: SANGER: Inhibition of human NCI-N87 cell growth in a cell viability assay.

NCI-H226 = format: functional, cell-based, Homo sapiens; conditions: Homo sapiens, NCI-H226;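 also: cell viability read-out used to gauge growth inhibition of the cells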
Description: SANGER: Inhibition of human NCI-H226 cell growth in a cell viability assay.

L-363 = format: functional, cell-based, Homo sapiens; conditions: Homo sapiens, L-363
Description: SANGER: Inhibition of human L-363 cell growth in a cell viability assay.

L-428 = format: functional, cell-based, Homo sapiens; conditions: Homo sapiens, L-428
Description: SANGER: Inhibition of human L-428 cell growth in a cell viability assay.

SK-PN-DW = format: functional, cell-based, Homo sapiens; conditions: Homo sapiens, SK-PN-DW;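 also: growth inhibition measured with a viability assay on these cells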
Description: SANGER: Inhibition of human SK-PN-DW cell growth in a cell viability assay.

NB5 = format: functional, cell-based, Homo sapiens; conditions: Homo sapiens, NB5;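 also: growth inhibition of NB5 cells, read out as cell viability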
Description: SANGER: Inhibition of human NB5 cell growth in a cell viability assay.

SCH = format: functional, cell-based, Homo sapiens; conditions: Homo sapiens, SCH;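 also: growth inhibition of human SCH cells, read out in a cell viability assay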
Description: SANGER: Inhibition of human SCH cell growth in a cell viability assay.

NCI-H720 = format: functional, cell-based, Homo sapiens; conditions: Homo sapiens, NCI-H720;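 also: growth inhibition of human NCI-H720 cells determined by a cell viability assay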
Description: SANGER: Inhibition of human NCI-H720 cell growth in a cell viability assay.

MV4-11 = format: functional, cell-based, Homo sapiens, MV-4-11; conditions: Homo sapiens, MV4-11;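 also: cell viability readout measuring growth inhibition of human MV-4-11 cells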
Description: SANGER: Inhibition of human MV-4-11 cell growth in a cell viability assay.

NCI-H1355 = format: functional, cell-based, Homo sapiens; conditions: Homo sapiens, NCI-H1355;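 also: growth inhibition of human NCI-H1355 cells, read out by a cell viability assay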
Description: SANGER: Inhibition of human NCI-H1355 cell growth in a cell viability assay.

LB771-HNC = format: functional, cell-based; conditions: Homo sapiens;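 also: growth inhibition of LB771-HNC human cells, read out with a cell viability assay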
Description: SANGER: Inhibition of human LB771-HNC cell growth in a cell viability assay.

TE-9 = format: functional, cell-based, Homo sapiens; conditions: Homo sapiens, TE-9;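 also: cell growth inhibition, measured with a cell viability readout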
Description: SANGER: Inhibition of human TE-9 cell growth in a cell viability assay.

SK-NEP-1 = format: functional, cell-based, Homo sapiens; conditions: Homo sapiens, SK-NEP-1;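 also: growth inhibition of human SK-NEP-1 cells, read out by a cell viability assay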
Description: SANGER: Inhibition of human SK-NEP-1 cell growth in a cell viability assay.

GR-ST = format: functional, cell-based, Homo sapiens; conditions: Homo sapiens, GR-ST
Description: SANGER: Inhibition of human GR-ST cell growth in a cell viability assay.

MOLT-16 = format: functional, cell-based, Homo sapiens; conditions: Homo sapiens, MOLT-16;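 also: growth inhibition of human MOLT-16 cells, read out with a cell viability assay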
Description: SANGER: Inhibition of human MOLT-16 cell growth in a cell viability assay.

ES5 = format: functional, cell-based, Homo sapiens; conditions: Homo sapiens, ES5;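 also: growth inhibition of human ES5 cells, read out by a cell viability assay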
Description: SANGER: Inhibition of human ES5 cell growth in a cell viability assay.

OCUB-M = format: functional, cell-based; conditions: Homo sapiens;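 also: growth inhibition of the cancer cell line, read out through a cell viability assay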
Description: SANGER: Inhibition of human OCUB-M cell growth in a cell viability assay.

TGBC1TKB = format: functional, cell-based, Homo sapiens; conditions: Homo sapiens, TGBC1TKB;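 also: growth inhibition of TGBC1TKB cells, read out by a cell viability assay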
Description: SANGER: Inhibition of human TGBC1TKB cell growth in a cell viability assay.

MHH-NB-11 = format: functional, cell-based, Homo sapiens; conditions: Homo sapiens, MHH-NB-11;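 also: growth inhibition of human MHH-NB-11 cells, read out by a cell viability assay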
Description: SANGER: Inhibition of human MHH-NB-11 cell growth in a cell viability assay.

HCC2157 = format: functional, cell-based, Homo sapiens; conditions: Homo sapiens, HCC2157;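 also: growth inhibition of the cancer cell line, read out as cell viability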
Description: SANGER: Inhibition of human HCC2157 cell growth in a cell viability assay.

SJSA-1 = format: functional, cell-based, Homo sapiens; conditions: Homo sapiens, SJSA-1;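 also: growth inhibition of human SJSA-1 cells, read out through a cell viability measurement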
Description: SANGER: Inhibition of human SJSA-1 cell growth in a cell viability assay.

LXF-289 cell line = format: functional, cell-based; conditions: Homo sapiens
Description: SANGER: Inhibition of human LXF-289 cell growth in a cell viability assay.

TE-5 = format: functional, cell-based, Homo sapiens; conditions: Homo sapiens, TE-5;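 also: inhibition of cell growth, read out by a cell viability assay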
Description: SANGER: Inhibition of human TE-5 cell growth in a cell viability assay.

CCRF-CEM = format: functional, cell-based, Homo sapiens; conditions: Homo sapiens, CCRF-CEM;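 also: inhibition of CCRF-CEM cell growth, measured by a cell viability assay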
Description: SANGER: Inhibition of human CCRF-CEM cell growth in a cell viability assay.

PSN1 = format: functional, cell-based, Homo sapiens; conditions: Homo sapiens, PSN1;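 also: suppression of growth of human PSN1 cells, read out by a cell viability assay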
Description: SANGER: Inhibition of human PSN1 cell growth in a cell viability assay.

NCI-H1092 = format: functional, cell-based, Homo sapiens; conditions: Homo sapiens, NCI-H1092;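 also: cell growth inhibition measured with a cell viability assay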
Description: SANGER: Inhibition of human NCI-H1092 cell growth in a cell viability assay.

no-10 = format: functional, cell-based, Homo sapiens; conditions: Homo sapiens;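 also: growth inhibition of no-10 cells, read out with a cell viability assay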
Description: SANGER: Inhibition of human no-10 cell growth in a cell viability assay.

EW-18 = format: functional, cell-based, Homo sapiens; conditions: Homo sapiens, EW-18; read-out: IC50;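 also: growth inhibition of EW-18 cells, read out by a cell viability assay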
Description: SANGER: Inhibition of human EW-18 cell growth in a cell viability assay.

GI-1 = format: functional, cell-based, Homo sapiens; conditions: Homo sapiens, GI-1;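 also: growth inhibition of human GI-1 cells, measured with a cell viability readout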
Description: SANGER: Inhibition of human GI-1 cell growth in a cell viability assay.

OCI-AML2 = format: functional, cell-based, Homo sapiens; conditions: Homo sapiens, OCI-AML2;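 also: growth inhibition of OCI-AML2 cells, read out with a cell viability assay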
Description: SANGER: Inhibition of human OCI-AML2 cell growth in a cell viability assay.

NB6 = format: functional, cell-based, Homo sapiens; conditions: Homo sapiens, NB6;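 also: growth inhibition of NB6 cells, read out by a cell viability assay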
Description: SANGER: Inhibition of human NB6 cell growth in a cell viability assay.

RH-1 = format: functional, cell-based, Homo sapiens; conditions: Homo sapiens, RH-1;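 also: growth inhibition of human RH-1 cells, read out with a cell viability assay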
Description: SANGER: Inhibition of human RH-1 cell growth in a cell viability assay.

LB1047-RCC = format: functional, cell-based, Homo sapiens; conditions: Homo sapiens, LB1047-RCC;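 also: inhibition of cell growth, determined with a cell viability assay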
Description: SANGER: Inhibition of human LB1047-RCC cell growth in a cell viability assay.

SCC-15 = format: functional, cell-based, Homo sapiens; conditions: Homo sapiens, SCC-15;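 also: growth inhibition of SCC-15 cells, read out with a cell viability assay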
Description: SANGER: Inhibition of human SCC-15 cell growth in a cell viability assay.

NEC8 = format: functional, cell-based, Homo sapiens; conditions: Homo sapiens, NEC8;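 also: growth inhibition of human NEC8 cells, read out by a cell viability assay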
Description: SANGER: Inhibition of human NEC8 cell growth in a cell viability assay.

RXF 393 = format: functional, cell-based, Homo sapiens; conditions: Homo sapiens, RXF 393;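 also: growth inhibition of human RXF 393 cells, read out with a cell viability assay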
Description: SANGER: Inhibition of human RXF393 cell growth in a cell viability assay.

8-MG-BA = format: functional, cell-based, Homo sapiens; conditions: Homo sapiens, 8-MG-BA;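 also: growth inhibition of 8-MG-BA cells, read out with a cell viability assay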
Description: SANGER: Inhibition of human 8-MG-BA cell growth in a cell viability assay.

NCI-H526 = format: functional, cell-based, Homo sapiens; conditions: Homo sapiens, NCI-H526;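 also: growth inhibition of the human NCI-H526 cell line, measured by a cell viability assay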
Description: SANGER: Inhibition of human NCI-H526 cell growth in a cell viability assay.

QIMR-WIL = format: functional, cell-based, Homo sapiens; conditions: Homo sapiens, QIMR-WIL;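 also: growth inhibition of QIMR-WIL cells, read out with a cell viability assay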
Description: SANGER: Inhibition of human QIMR-WIL cell growth in a cell viability assay.

D-247MG = format: functional, cell-based; conditions: Homo sapiens
Description: SANGER: Inhibition of human D-247MG cell growth in a cell viability assay.

SW 962 = format: functional, cell-based, Homo sapiens; conditions: Homo sapiens, SW 962;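 also: growth inhibition of human SW962 cells, read out by a cell viability assay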
Description: SANGER: Inhibition of human SW962 cell growth in a cell viability assay.

BV-173 = format: functional, cell-based, Homo sapiens; conditions: Homo sapiens, BV-173
Description: SANGER: Inhibition of human BV-173 cell growth in a cell viability assay.

NCI-H1299 = format: functional, cell-based; conditions: Homo sapiens;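 also: growth inhibition of human NCI-H1299 cells, read out by a cell viability assay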
Description: SANGER: Inhibition of human NCI-H1299 cell growth in a cell viability assay.

Measured: IC50

CC1(C)CCC(c2ccc(Cl)cc2)=C(CN2CCN(c3ccc(C(=O)NS(=O)(=O)c4ccc(N[C@H](CCN5CCOCC5)CSc5ccccc5)c(S(=O)(=O)C(F)(F)F)c4)cc3)CC2)C1 [NAVITOCLAX]
0.0429 µM: QIMR-WIL
0.335 µM: CCRF-CEM
0.103 µM: NCI-H1092
1.01 µM: L-428
0.0401 µM: NCI-H720
1.16 µM: KP-N-YS
0.0721 µM: SK-NEP-1
1.19 µM: HCC2157
0.0684 µM: EW-18
0.0231 µM: BV-173
1.51 µM: D-247MG
1.14 µM: TGBC1TKB
0.653 µM: MOLT-16
0.0159 µM: MV4-11
0.725 µM: HAL-01
> 2 µM: all other assays above

O=S(=O)(O)c1ccc2cc(/N=N/c3cc(S(=O)(=O)O)c4cccnc4c3O)ccc2c1
13.7 µM: NB6
> 16 µM: all other assays above
